Where two headings read alike, the source gives them in different places.
What was measured:
[1] = target: T1, tetanus toxin C fragment (TTC) (Clostridium tetani, UniProt P04958); settings: read-out: KD Reported; cited from earlier work
[2] = target: T1, tetanus toxin C fragment (TTC); test: biochemical; type: binding
[3] = target: T2, cholera toxin B subunit (CTB) (Vibrio cholerae serotype O1, UniProt P01556); test: biochemical; type: binding
[4] = target: avidin (Gallus gallus, UniProt P02701); test: bMR nanosensor competition assay, avidin-biotin; type: binding; settings: control study with avidin bMR nanosensors
Chain of avidin (P02701 25-152, species assumed): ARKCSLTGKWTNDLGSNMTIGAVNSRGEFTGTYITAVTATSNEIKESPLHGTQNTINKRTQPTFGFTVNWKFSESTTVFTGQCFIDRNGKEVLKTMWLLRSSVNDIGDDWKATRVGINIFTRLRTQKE

[5] = target: mouse IgG (mouse); test: magnetic relaxation
[6] = target: Concanavalin A (Canavalia ensiformis, UniProt P02866); settings: read-out: KD Reported; cited from earlier work
[7] = target: T2, cholera toxin B subunit (CTB); settings: read-out: KD Reported; cited from earlier work

T1 sequence (P04958 865-1315 limits assumed): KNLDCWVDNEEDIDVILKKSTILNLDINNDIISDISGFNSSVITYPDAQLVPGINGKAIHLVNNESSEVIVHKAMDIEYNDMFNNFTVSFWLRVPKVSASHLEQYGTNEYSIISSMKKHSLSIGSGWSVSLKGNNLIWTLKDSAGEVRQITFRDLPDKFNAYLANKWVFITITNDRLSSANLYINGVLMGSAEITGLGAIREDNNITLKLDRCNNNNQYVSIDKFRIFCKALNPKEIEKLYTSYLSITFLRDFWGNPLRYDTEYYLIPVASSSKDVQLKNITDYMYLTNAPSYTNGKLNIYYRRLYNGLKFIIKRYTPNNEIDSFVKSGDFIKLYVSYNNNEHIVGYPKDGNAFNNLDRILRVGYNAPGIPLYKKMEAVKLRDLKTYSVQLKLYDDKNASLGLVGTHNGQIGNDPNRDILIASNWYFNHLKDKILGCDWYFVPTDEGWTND
T2 sequence (P01556 22-124 limits assumed): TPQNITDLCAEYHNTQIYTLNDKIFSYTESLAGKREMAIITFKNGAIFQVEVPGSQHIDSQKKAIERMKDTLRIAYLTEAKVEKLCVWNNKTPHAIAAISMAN

## COc1cccc2c1C(=O)c1c(O)c3c(c(O)c1C2=O)C[C@@](O)(C(=O)CO)C[C@@H]3O[C@H]1C[C@H](N)[C@H](O)[C@H](C)O1 [Doxorubicin, doxorubicin]
[1]
  Kd: 9.4 µM
[2]
  Kd: 4.1 µM

## O=C[C@H](O)[C@@H](O)[C@@H](O)[C@H](O)CO [Galactose, galactose]
[3]
  Kd: 3.5 µM

## bovine serum albumin
[4]
  changes in magnetic relaxation: nominal changes

## OC[C@H]1O[C@@H](O[C@H]2[C@H](O)[C@@H](O)C(O)O[C@@H]2CO)[C@H](O)[C@@H](O)[C@H]1O (mixture of isomers) [Lactose, lactose]
[3]
  Kd: 88 µM

## O=C(O)c1cc(O)c2c(c1)C(=O)c1cccc(O)c1C2=O [Rhein, rhein]
[2]
  Kd: 33.6 µM

## Protein G (from UniProt P06654 34-417) (natural protein)
[5]
  Kd: 0.4 pM

## dextran
[6]
  Kd: 0.09 µM
[7]
  Kd: 14000 µM
[3]
  Kd: 4.9 µM

## OC[C@H]1O[C@@H]2O[C@H]3[C@H](O)[C@@H](O)[C@@H](O[C@H]4[C@H](O)[C@@H](O)[C@@H](O[C@H]5[C@H](O)[C@@H](O)[C@@H](O[C@H]6[C@H](O)[C@@H](O)[C@@H](O[C@H]7[C@H](O)[C@@H](O)[C@@H](O[C@H]8[C@H](O)[C@@H](O)[C@@H](O[C@H]1[C@H](O)[C@H]2O)O[C@@H]8CO)O[C@@H]7CO)O[C@@H]6CO)O[C@@H]5CO)O[C@@H]4CO)O[C@@H]3CO [β-Cyclodextrin, β-cyclodextrin]
[3]
  Kd: 3.6 µM

## OC[C@H]1OC(O)[C@H](O)[C@@H](O)[C@@H]1O (stereo partly drawn) [Glucose, glucose]
[3]
  Kd: 36 µM

Reference: paper PMC3461998 (Angewandte Chemie (International ed. in English), 2012)
